According to patent US8741834B2, “Dipeptoid prodrugs and the use thereof” (Bayer Intellectual Property GmbH, priority 2008, dated 2014):
Where a name gives a salt, the structure may show the parent alone.

How the values were obtained:
[1] = Stability in buffer at various pH values; type: physicochemical
Protocol: 0.3 mg of the test substance is weighed into a 2 ml HPLC vial and 0.5 ml of acetonitrile or acetonitrile/DMSO (9:1) is added. The substance is dissolved by putting the sample vessel in an ultrasonic bath for about 10 seconds. Then 0.5 ml of the respective buffer solution is added, and the sample is again treated in the ultrasonic bath.
pH 2: 0.03 mol of citric acid, 0.061 mol of sodium chloride and 0.0082 mol of hydrochoric acid ad 1 liter of water;
pH 4: 1 liter of Millipore water is adjusted to pH 4.0 with 1 N hydrochloric acid;
pH 5: 0.096 mol of citric acid and 0.2 mol of sodium hydroxide ad 1 liter of water;
pH 6: 0.06 mol of citric acid and 0.16 mol of sodium hydroxide ad 1 liter of water;
pH 7.4: 90.0 g of sodium chloride, 13.61 g of potassium dihydrogen phosphate and 83.35 g of 1 N sodium hydroxide solution are made up to 1 liter with water; this solution is then further diluted 1:10 with Millipore water.
pH 8: 0.013 mol of borax and 0.021 mol of hydrochloric acid ad 1 liter of water.
5 μl portions of the test solution are analyzed by HPLC for their content of unchanged test substance, and of active substance (A) formed, every hour over a period of 24 hours at 37° C. The percentage areas of the appropriate peaks are used for quantification.
The ratios of the peak areas (F) at the respective time points in relation to the peak areas at the starting time are shown in Table 2 for representative exemplary embodiments: […]

[2] = Determination of the solubility in 5% strength aqueous dextrose solution; type: physicochemical; settings: saline or isotonic, thermodynamic from solid, room temperature
Protocol: The test substance is suspended in 5% strength aqueous dextrose solution. This suspension is shaken at room temperature for 24 h. After ultracentrifugation at 224 000 g for 30 min, the supernatant is diluted with DMSO and analysed by HPLC. A two-point calibration plot of the test compound in DMSO is used for quantification.
Agilent 1100 with DAD (G1315A), quat. Pump (G1311A), autosampler CTC HTS PAL, degasser (G1322A) and column thermostat (G1316A); column: Phenomenex Gemini C18, 5 μm, 50 mm×2 mm; temperature: 40° C.; eluent A: water/phosphoric acid pH 2, eluent B: acetonitrile; flow rate: 0.7 ml/min; gradient: 0-0.5 min 85% A, 15% B; ramp 0.5-3 min 10% A, 90% B; 3-3.5 min 10% A, 90% B; ramp 3.5-4 min 85% A, 15% B; 4-5 min 85% A, 15% B.
Agilent 1100 with DAD (G1315A), quat. pump (G1311A), autosampler CTC HTS PAL, degasser (G1322A) and column thermostat (G1316A); column: VDSoptilab Kromasil 100 C18, 3.5 μm, 60 mm×2.1 mm; temperature: 30° C.; eluent A: water+5 ml of perchloric acid/liter, eluent B: acetonitrile; flow rate: 0.75 ml/min; gradient: 0-0.5 min 98% A, 2% B; ramp 0.5-4.5 min 10% A, 90% B; 4.5-6 min 10% A, 90% B; ramp 6.5-6.7 min 98% A, 2% B; 6.7-7.5 min 98% A, 2% B.

| % test substance after 4 h [F(t = 4 h) × 100/F(t = 0 h)] ([1]; pH 4, 37° C.) | % test substance after 24 h [F(t = 24 h) × 100/F(t = 0 h)] ([1]; pH 4, 37° C.) | % test substance after 4 h [F(t = 4 h) × 100/F(t = 0 h)] ([1]; pH 7.4, 37° C.) | % test substance after 24 h [F(t = 24 h) × 100/F(t = 0 h)] ([1]; pH 7.4, 37° C.) | solubility thermodynamic at 24 h [2] | % test substance after 4 h [F(t = 4 h) × 100/F(t = 0 h)] ([1]; pH 5, 37° C.) | % test substance after 24 h [F(t = 24 h) × 100/F(t = 0 h)] ([1]; pH 5, 37° C.) | SMILES |
| --- | --- | --- | --- | --- | --- | --- | --- |
| – | – | – | – | 220 µg/mL | – | – | C[C@H](N)C(=O)NCCC(=O)OC[C@H](COc1ccc(-c2c(C#N)c(N)nc(SCc3coc(-c4ccc(Cl)cc4)n3)c2C#N)cc1)OC(=O)CCNC(=O)[C@H](C)N [Example 31, (2S)-3-{4-[2-Amino-6-({[2-(4-chlorophenyl)-1,3-oxazol-4-yl]methyl}sulfanyl)-3,5-dicyanopyridin-4-yl]phenoxy}propane-1,2-diyl bis(3-{[(2S)-2-aminopropanoyl)amino}propanoate)dihydrochloride] |
| 98% | 94% | 2% | 0% | 610 µg/mL | – | – | C[C@H](NC(=O)[C@@H](N)CCCCN)C(=O)OC[C@H](COc1ccc(-c2c(C#N)c(N)nc(SCc3coc(-c4ccc(Cl)cc4)n3)c2C#N)cc1)OC(=O)[C@H](C)NC(=O)[C@@H](N)CCCCN [Example 35, (2S)-3-{4-[2-Amino-6-({[2-(4-chlorophenyl)-1,3-oxazol-4-yl]methyl}sulfanyl)-3,5-dicyanopyridin-4-yl]phenoxy}propane-1,2-diyl(2S,2′S)-bis(2-{[(2S)-2,6-diaminohexanoyl)amino}propanoate)tetrahydrochloride] |
| – | – | – | – | 700 µg/mL | – | – | C[C@@H](O)[C@H](NC(=O)CN)C(=O)OC[C@H](COc1ccc(-c2c(C#N)c(N)nc(SCc3coc(-c4ccc(Cl)cc4)n3)c2C#N)cc1)OC(=O)[C@@H](NC(=O)CN)[C@@H](C)O [Example 36, (2S)-3-{4-[2-Amino-6-({[2-(4-chlorophenyl)-1,3-oxazol-4-yl]methyl}sulfanyl)-3,5-dicyanopyridin-4-yl]phenoxy}propane-1,2-diyl (2S,3R,2′S,3′R)-bis{2-[(aminoacetyl)amino]-3-hydroxybutanoate}bis(trifluoroacetic acid) salt] |
| – | – | – | – | 750 µg/mL | – | – | C[C@H](N)C(=O)N[C@H](C(=O)OC[C@H](COc1ccc(-c2c(C#N)c(N)nc(SCc3coc(-c4ccc(Cl)cc4)n3)c2C#N)cc1)OC(=O)[C@@H](NC(=O)[C@H](C)N)[C@@H](C)O)[C@@H](C)O [Example 38, (2S)-3-{4-[2-Amino-6-({[2-(4-chlorophenyl)-1,3-oxazol-4-yl]methyl}sulfanyl)-3,5-dicyanopyridin-4-yl]phenoxy}propane-1,2-diyl (2S,3R,2′S,3′R)-bis(2-{[(2S)-2-aminopropanoyl]amino}-3-hydroxybutanoate)bis(trifluoroacetic acid) salt] |
| 100% | 99% | 0% | 0% | – | – | – | C[C@H](NC(=O)[C@@H](N)CCCCN)C(=O)OC[C@@H](COc1ccc(-c2c(C#N)c(N)nc(SCc3coc(-c4ccc(Cl)cc4)n3)c2C#N)cc1)OC(=O)[C@H](C)NC(=O)[C@@H](N)CCCCN [Example 34, (2R)-3-{4-[2-Amino-6-({[2-(4-chlorophenyl)-1,3-oxazol-4-yl]methyl}sulfanyl)-3,5-dicyanopyridin-4-yl]phenoxy}propane-1,2-diyl(2S,2′S)-bis(2-{[(2S)-2,6-diaminohexanoyl]amino}propanoate)tetrahydrochloride] |
| – | – | – | – | 490 µg/mL | – | – | C[C@@H](O)[C@H](N)C(=O)NCCC(=O)OC[C@H](COc1ccc(-c2c(C#N)c(N)nc(SCc3coc(-c4ccc(Cl)cc4)n3)c2C#N)cc1)OC(=O)CCNC(=O)[C@@H](N)[C@@H](C)O [Example 39, (2S)-3-{4-[2-Amino-6-({[2-(4-chlorophenyl)-1,3-oxazol-4-yl]methyl}sulfanyl)-3,5-dicyanopyridin-4-yl]phenoxy}propane-1,2-diyl bis(3-{[(2S,3R)-2-amino-3-hydroxybutanoyl]amino}propanoate)bis(trifluoroacetic acid) salt] |

Second part, the molecule before the results:

| SMILES | % test substance after 4 h [F(t = 4 h) × 100/F(t = 0 h)] ([1]; pH 4, 37° C.) | % test substance after 24 h [F(t = 24 h) × 100/F(t = 0 h)] ([1]; pH 4, 37° C.) | % test substance after 4 h [F(t = 4 h) × 100/F(t = 0 h)] ([1]; pH 7.4, 37° C.) | % test substance after 24 h [F(t = 24 h) × 100/F(t = 0 h)] ([1]; pH 7.4, 37° C.) | solubility thermodynamic at 24 h [2] | % test substance after 4 h [F(t = 4 h) × 100/F(t = 0 h)] ([1]; pH 5, 37° C.) | % test substance after 24 h [F(t = 24 h) × 100/F(t = 0 h)] ([1]; pH 5, 37° C.) |
| --- | --- | --- | --- | --- | --- | --- | --- |
| C[C@H](NC(=O)C[C@H](N)C(=O)O)C(=O)OC[C@H](COc1ccc(-c2c(C#N)c(N)nc(SCc3coc(-c4ccc(Cl)cc4)n3)c2C#N)cc1)OC(=O)[C@H](C)NC(=O)C[C@H](N)C(=O)O [Example 14, (2S,6S,9S,13S,17S)-2,17-Diamino-9-({4-[2-amino-6-({[2-(4-chlorophenyl)-1,3-oxazol-4-yl]methyl}sulfanyl)-3,5-dicyanopyridin-4-yl]phenoxy}methyl)-6,13-dimethyl-4,7,12,15-tetraoxo-8,11-dioxa-5,14-diazaoctadecane-1,18-dioic acid bis(trifluoroacetic acid) salt] | 96% | 95% | 100% | 91% | – | – | – |
| C[C@H](NC(=O)[C@@H](N)CCCN)C(=O)OC[C@H](COc1ccc(-c2c(C#N)c(N)nc(SCc3coc(-c4ccc(Cl)cc4)n3)c2C#N)cc1)OC(=O)[C@H](C)NC(=O)[C@@H](N)CCCN [Example 4, (2S)-3-{4-[2-Amino-6-({[2-(4-chlorophenyl)-1,3-oxazol-4-yl]methyl}sulfanyl)-3,5-dicyanopyridin-4-yl]phenoxy}propane-1,2-diyl (2S,2′S)-bis(2-{[(2S)-2,5-diaminopentanoyl]amino}propanoate)tetrahydrochloride] | – | – | – | – | 860 µg/mL | – | – |
| C[C@H](NC(=O)[C@@H](N)CCN)C(=O)OC[C@H](COc1ccc(-c2c(C#N)c(N)nc(SCc3coc(-c4ccc(Cl)cc4)n3)c2C#N)cc1)OC(=O)[C@H](C)NC(=O)[C@@H](N)CCN [Example 3, (2S)-3-{4-[2-Amino-6-({[2-(4-chlorophenyl)-1,3-oxazol-4-yl]methyl}sulfanyl)-3,5-dicyanopyridin-4-yl]phenoxy}propane-1,2-diyl (2S,2′S)-bis(2-{[(2S)-2,4-diaminobutanoyl]amino}propanoate)tetrahydrochloride] | – | – | – | – | 590 µg/mL | – | – |
| CC(C)[C@H](NC(=O)[C@H](C)N)C(=O)OC[C@H](COc1ccc(-c2c(C#N)c(N)nc(SCc3coc(-c4ccc(Cl)cc4)n3)c2C#N)cc1)OC(=O)[C@@H](NC(=O)[C@H](C)N)C(C)C [Example 28, (2S)-3-{4-[2-Amino-6-({[2-(4-chlorophenyl)-1,3-oxazol-4-yl]methyl}sulfanyl)-3,5-dicyanopyridin-4-yl]phenoxy}propane-1,2-diyl(2S,2′S)-bis(2-{[(2S)-2-aminopropanoyl]amino}-3-methylbutanoate)dihydrochloride] | 100% | 99% | 99% | 88% | – | – | – |
| CC(C)[C@H](N)C(=O)N[C@@H](C)C(=O)OC[C@H](COc1ccc(-c2c(C#N)c(N)nc(SCc3coc(-c4ccc(Cl)cc4)n3)c2C#N)cc1)OC(=O)[C@H](C)NC(=O)[C@@H](N)C(C)C [Example 26, (2S)-3-{4-[2-Amino-6-({[2-(4-chlorophenyl)-1,3-oxazol-4-yl]methyl}sulfanyl)-3,5-dicyanopyridin-4-yl]phenoxy}propane-1,2-diyl (2S,2′S)-bis(2-{[(2S)-2-amino-3-methylbutanoyl]amino}propanoate)dihydrochloride] | 100% | 99% | 84% | 34% | – | 97% | 92% |
